Data on 1 compound can be found in patent publication US20220313728A1 (priority 2021, published 2022).

In test [1] the test system is patients with severe TRMD. As to the kind of experiment: Same trial; Montgomery-Asberg Depression Rating Scale (MADRS). The class given is in vivo, human. As to conditions: 25% nitrous oxide. The source says:
(§1) The trial was registered at clinicaltrials.gov (NCT03283670).
(§2) Patients were recruited from an existing database of TRMD patients identified through participation in a secondary referral clinic for TRMD at Washington University Department of Psychiatry, as well as from the “Volunteers for Health” patient pool (individuals with various medical/psychiatric conditions who volunteer to participate in clinical research) within Washington University School of Medicine. Inclusion criteria were a) adults 18-75 years of age; b) current diagnosis of unipolar major depressive disorder (MDD) without psychosis as confirmed by the Mini International Neuropsychiatric Interview; c) a score of ≥19 on the Montgomery-Asberg Depression Rating Scale (MADRS); d) documented lifetime failure to respond to ≥3 adequate dose/duration antidepressant treatment trials, including ≥1 antidepressant medication failure(s) in the current depressive episode; and e) good command of the English language. […] Patients were instructed to continue their current standard of care MDD treatment and to maintain a stable psychotropic medication dosage or psychotherapy regimen for 4 weeks prior to initiation of the study and throughout the study. […]

The subject of test [2] is patients with severe TRMD. The test can be described thus: Same trial; Quick Inventory of Depressive Symptomology-Self Report (QIDS-SR). The class given is in vivo, human.
Description: as §1, §2

In test [3] the test system is patients with severe TRMD. The test can be described thus: Same trial; Profile of Mood States 2nd Edition (POMS-2). The class given is in vivo, human.
Description: as §1, §2

For another test, the system named is patients with TRMD. Particulars: 50% nitrous oxide, one one-hour inhalation; cited from earlier work.
A further test relates to bothersome tinnitus. Particulars: similar clinical trial; 85% of patients correctly guessed the treatment arm; cited from earlier work.

Molecules are shown by their SMILES. “Also recorded” adds a separate entry of the source.

For the compound `[N-]=[N+]=O` [nitrous oxide], the MADRS efficacy result in test [1] is reported as “not significant”. Further, the “Results on the QIDS scale” value was “non-significant; also recorded: not statistically significant” in test [2] (25% nitrous oxide) and “not statistically significant” in test [2] (50% nitrous oxide, except at 2 weeks). For the same compound, the “Results on the POMS scale” value in test [3] (25% nitrous oxide) is “non-significant”; in test [3] (50% nitrous oxide), “significant at 2 weeks”. Besides, the “Effect on depressive symptoms in patients with TRMD (earlier study)” value in the test on patients with TRMD is reported as “improved depressive symptoms; also recorded: rapid antidepressant effects”. In addition, the “Treatment effect for bothersome tinnitus” value with bothersome tinnitus was “did not observe a treatment effect”.
